Measured values taken from ChEMBL document CHEMBL1146653, “Potent and selective, sulfamide-based human beta 3-adrenergic receptor agonists” (Bioorg Med Chem Lett, 2004).

Tests used:
[1] = biological target: Beta-2 adrenergic receptor (Homo sapiens) (UniProt P07550); experiment: Intrinsic activity (IA) human Beta-2 adrenergic receptor (at 30 uM, represent by the percentage of the maximal response attained by isoproterenol); type: functional
[2] = biological target: T1, Beta-3 adrenergic receptor (Homo sapiens, UniProt P13945); experiment: Intrinsic activity (IA) at human Beta-3 adrenergic receptor (represented by the percentage of the maximal response attained by isoproterenol); type: functional
Target sequence in this assay (P13945 whole entry, looked up): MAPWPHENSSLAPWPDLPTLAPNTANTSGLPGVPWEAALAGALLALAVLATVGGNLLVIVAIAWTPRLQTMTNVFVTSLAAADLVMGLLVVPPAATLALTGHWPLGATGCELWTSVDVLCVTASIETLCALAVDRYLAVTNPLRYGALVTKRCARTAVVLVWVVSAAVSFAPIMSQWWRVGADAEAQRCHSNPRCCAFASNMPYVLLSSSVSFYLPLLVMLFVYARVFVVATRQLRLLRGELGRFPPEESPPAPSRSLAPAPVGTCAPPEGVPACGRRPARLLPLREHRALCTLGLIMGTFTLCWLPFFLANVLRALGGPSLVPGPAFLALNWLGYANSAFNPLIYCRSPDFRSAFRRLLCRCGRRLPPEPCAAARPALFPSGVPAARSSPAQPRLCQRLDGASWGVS

[3] = biological target: Beta-1 adrenergic receptor (Homo sapiens) (UniProt P08588); experiment: Intrinsic activity (IA) at human Beta-1 adrenergic receptor (at 30 uM, represented by the percentage of the maximal response attained by isoproterenol); type: functional
[4] = biological target: T1, Beta-3 adrenergic receptor; experiment: Agonist activity (EC50) was assessed by measuring cAMP levels in CHO cells expressing cloned human Beta-3 adrenergic receptor; type: functional, cell-based
Target sequence in this assay (P13945 whole entry): as the sequence (P13945 whole entry, looked up) above

[5] = biological target: Beta-1 adrenergic receptor (Homo sapiens) (UniProt P08588); experiment: Intrinsic activity (IA) of 30 uM compound at human Beta-1 adrenergic receptor represent the percentage of the maximal response attained by isoproterenol

Beta-2 adrenergic receptor (Homo sapiens), sequence (P07550 whole entry, looked up): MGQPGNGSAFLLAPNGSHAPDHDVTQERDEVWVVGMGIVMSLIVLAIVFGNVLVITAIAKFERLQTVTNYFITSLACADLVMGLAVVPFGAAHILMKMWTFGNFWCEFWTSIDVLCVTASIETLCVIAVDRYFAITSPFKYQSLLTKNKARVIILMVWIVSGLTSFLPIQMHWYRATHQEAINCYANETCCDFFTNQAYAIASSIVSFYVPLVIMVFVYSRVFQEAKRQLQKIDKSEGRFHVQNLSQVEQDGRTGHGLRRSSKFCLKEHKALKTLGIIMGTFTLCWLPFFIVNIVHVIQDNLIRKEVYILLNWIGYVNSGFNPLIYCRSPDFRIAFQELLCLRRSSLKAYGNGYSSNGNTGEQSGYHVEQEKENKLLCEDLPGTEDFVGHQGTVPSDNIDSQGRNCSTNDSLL
Beta-1 adrenergic receptor (Homo sapiens), sequence (P08588 whole entry, looked up): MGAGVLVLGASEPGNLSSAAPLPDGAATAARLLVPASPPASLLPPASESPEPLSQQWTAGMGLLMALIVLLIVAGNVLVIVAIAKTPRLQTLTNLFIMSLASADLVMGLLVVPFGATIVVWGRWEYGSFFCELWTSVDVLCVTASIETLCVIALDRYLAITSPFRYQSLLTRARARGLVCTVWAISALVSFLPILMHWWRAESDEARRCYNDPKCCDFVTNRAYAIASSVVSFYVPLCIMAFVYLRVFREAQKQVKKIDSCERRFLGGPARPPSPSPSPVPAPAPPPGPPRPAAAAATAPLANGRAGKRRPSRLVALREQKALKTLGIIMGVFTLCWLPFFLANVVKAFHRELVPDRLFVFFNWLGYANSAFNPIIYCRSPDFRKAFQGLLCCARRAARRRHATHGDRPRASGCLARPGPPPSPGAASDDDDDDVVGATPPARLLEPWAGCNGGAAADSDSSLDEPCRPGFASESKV

SMILES | IA [1] | IA [2] | IA [3] | EC50 [4] | IA [5]
O=S(=O)(Nc1ccc(CCNC[C@H](O)c2cccnc2)cc1)N1CCC(c2ccccc2)CC1 | 2 | 100 | 2 | 0.023 µM | 
O=S(=O)(Nc1ccc(CCNC[C@H](O)c2cccc(Cl)c2)cc1)NC1CCCCC1 | 7 | 63 |  | 0.464 µM | 10
O=S(=O)(Nc1ccc(CCNC[C@H](O)c2cccnc2)cc1)c1ccc(-c2nc(-c3ccc(C(F)(F)F)cc3)cs2)cc1 | 1 | 92 | 1 |  | 
CN(C1CCCCC1)S(=O)(=O)Nc1ccc(CCNC[C@H](O)c2cccc(Cl)c2)cc1 | 5 | 62 | 6 | 0.537 µM | 
O=S(=O)(Nc1ccc(CCNC[C@H](O)c2cccnc2)cc1)N1CCCCC1 | 6 | 77 | 7 | 0.099 µM | 
O=S(=O)(Nc1ccc(CCNC[C@H](O)c2cccc(Cl)c2)cc1)N1CCCCC1 | 5 | 84 | 4 | 0.617 µM | 
CC(C)(Cc1ccc(NS(=O)(=O)N2CCC(c3ccccc3)CC2)cc1)NC[C@H](O)c1cccnc1 | 9 | 106 | 20 | 0.047 µM | 
COCCNS(=O)(=O)Nc1ccc(CC(C)(C)NC[C@H](O)c2cccnc2)cc1 | 24 | 103 | 28 | 0.165 µM | 
CN(C)S(=O)(=O)Nc1ccc(OCCNC[C@H](O)c2cccnc2)cc1 | 4 | 96 | 3 | 0.943 µM | 
CN(C)S(=O)(=O)Nc1ccc(CCNC[C@H](O)c2cccc(Cl)c2)cc1 | 6 | 75 | 5 | 0.299 µM | 
CN(C)S(=O)(=O)Nc1ccc(CC(C)(C)NC[C@H](O)c2cccnc2)cc1 | 7 | 98 | 10 | 0.038 µM | 
CC1CCN(S(=O)(=O)Nc2ccc(CC(C)(C)NC[C@H](O)c3cccnc3)cc2)CC1 | 6 | 91 | 12 | 0.01 µM | 
CC1CCN(S(=O)(=O)Nc2ccc(OCCNC[C@H](O)c3cccnc3)cc2)CC1 | 7 | 98 | 5 | 1.36 µM | 
CC(C)(Cc1ccc(NS(=O)(=O)NC2CCCCC2)cc1)NC[C@H](O)c1cccnc1 | 19 | 110 | 17 | 0.025 µM | 
CN(C)S(=O)(=O)Nc1ccc(CCNC[C@H](O)c2cccnc2)cc1 | 11 | 84 | 6 | 0.265 µM | 
CC(C)(Cc1ccc(NS(=O)(=O)Nc2ccccc2)cc1)NC[C@H](O)c1cccnc1 | 8 | 107 | 29 | 0.007 µM | 
C[C@@H]1CN(S(=O)(=O)Nc2ccc(CC(C)(C)NC[C@H](O)c3cccnc3)cc2)C[C@H](C)O1 | 8 | 85 | 10 | 0.008 µM | 
C[C@@H]1C[C@H](C)CN(S(=O)(=O)Nc2ccc(CC(C)(C)NC[C@H](O)c3cccnc3)cc2)C1 | 11 | 89 | 7 | 0.004 µM | 
CC(C)(Cc1ccc(NS(=O)(=O)N2CCN(Cc3ccccc3)CC2)cc1)NC[C@H](O)c1cccnc1 | 13 | 105 | 46 | 0.018 µM | 
CC1CCN(S(=O)(=O)Nc2ccc(CCNC[C@H](O)c3cccnc3)cc2)CC1 | 8 | 80 | 6 | 0.036 µM | 
O=S(=O)(Nc1ccc(CCNC[C@H](O)c2cccnc2)cc1)NC1CCCCC1 | 0 | 71 | 0 | 1.46 µM | 
CN(C)S(=O)(=O)N(C)c1ccc(CCNC[C@H](O)c2cccc(Cl)c2)cc1 | 1 | 105 | 2 | 9.9 µM | 
CN(C1CCCCC1)S(=O)(=O)Nc1ccc(CCNC[C@H](O)c2cccnc2)cc1 | 16 | 67 | 15 | 0.18 µM | 
CN1CCN(S(=O)(=O)Nc2ccc(CC(C)(C)NC[C@H](O)c3cccnc3)cc2)CC1 | 4 | 79 | 7 | 0.041 µM | 
C[C@@H]1C[C@H](C)CN(S(=O)(=O)Nc2ccc(CCNC[C@H](O)c3cccnc3)cc2)C1 | 17 | 95 | 11 | 0.024 µM | 
